From ChEMBL document CHEMBL1129182, “Oximes: A new class of methoxytetrahydropyranyl inhibitors of leukotriene biosynthesis with high in vitro and in vivo potency” (Bioorg Med Chem Lett, 1996)
Converted amounts (≈) assume the structure as drawn.

Key:
[1] = species on record: Homo sapiens; assay: In vitro inhibitory activity against LTB4 synthesis in A-23187 stimulated human whole blood (HB1).; format: functional
[2] = species on record: Rattus norvegicus; assay: compound was tested for oral activity in the rat using zymosan-inflamed air pouch exudate at 3 hrs post dose(RAP).; format: functional
[3] = Solubility was evaluated; format: physicochemical
[4] = pKa value was evaluated; format: physicochemical

IC50 [1] [nM]	solubility [3] [µM]	pKa [4]	Compound	ED50 [2] [mg/kg]
40	–	–	COC1(c2csc(Sc3ccc4c(c3)CC/C4=N\OCC#N)c2)CCOCC1	–
50	–	–	COC1(c2cc(F)cc(Sc3ccc4c(c3)OCC/C4=N\O)c2)CCOCC1	–
20	–	–	COC1(c2cc(F)cc(Sc3ccc(/C(C)=N/OCC#N)cc3)c2)CCOCC1	–
920	–	–	COC1(c2cc(F)cc(Sc3ccc(/C(C)=N/OC(C)C)cc3)c2)CCOCC1	–
40	–	–	COC1(c2cc(F)cc(Sc3ccc(/C(C)=N/OCCF)cc3)c2)CCOCC1	–
> 10000	–	–	COC1(c2cc(F)cc(Sc3ccccc3/C(C)=N/O)c2)CCOCC1	–
40	–	–	CO[C@]1(c2cnc(Sc3ccc(/C(C)=N/O)cc3)s2)CCO[C@@H](C)C1	0.3
140	1 (≈ 0.45 µg/mL)	–	CO[C@]1(c2cnc(S(=O)(=O)c3ccc(/C(C)=N/OCC#N)cc3)s2)CCO[C@@H](C)C1	0.5
40	–	–	COC1(c2cc(F)cc(Sc3ccc4c(c3)OCC/C4=N\OCC#N)c2)CCOCC1	–
320	31 (≈ 12.7 µg/mL)	–	CO[C@]1(c2cnc(S(=O)(=O)c3ccc(/C(C)=N/O)cc3)s2)CCO[C@@H](C)C1	1
60	–	–	COC1(c2csc(Sc3ccc4c(c3)OCC/C4=N\OCC#N)c2)CCOCC1	0.15
610	–	–	CCOC(=O)CO/N=C(\C)c1ccc(Sc2cc(F)cc(C3(OC)CCOCC3)c2)cc1	–
250	–	6.2	COC1(c2cc(F)cc(Sc3ccc(/C(C#N)=N/O)cc3)c2)CCOCC1	–
40	–	–	CO[C@]1(c2cnc(Sc3ccc(/C(C)=N/OCC#N)cc3)s2)CCO[C@@H](C)C1	0.3
140	–	–	CO/N=C(\C)c1ccc(Sc2cc(F)cc([C@@]3(OC)CCO[C@@H](C)C3)c2)cc1	0.15
170	–	9.3	CCOC(=O)/C(=N\O)c1ccc(Sc2cc(F)cc(C3(OC)CCOCC3)c2)cc1	–
40	–	–	CO[C@]1(c2cc(F)cc(Sc3ccc(/C(C)=N/OCC#N)cc3)c2)CCO[C@@H](C)C1	0.15
290	–	–	COC1(c2cc(F)cc(Sc3ccc4c(c3)CC/C4=N\O)c2)CCOCC1	–

IC50 [1] [nM]	solubility [3] [µM]	pKa [4]	Compound	ED50 [2] [mg/kg]
280	–	7.68	COC1(c2cc(F)cc(Sc3ccc(/C(=N/O)C(F)(F)F)cc3)c2)CCOCC1	–
230	–	–	COC1(c2cc(F)cc(Sc3ccc(/C(C)=N/OCCSc4nnc(C)s4)cc3)c2)CCOCC1	–
420	–	–	COC(=O)C(C)(C)CO/N=C(\C)c1ccc(Sc2cc(F)cc(C3(OC)CCOCC3)c2)cc1	–
190	–	–	COC1(c2cc(F)cc(Sc3ccc(/C(=N/O)SC)cc3)c2)CCOCC1	–
20	4.6 (≈ 1.94 µg/mL)	–	CO[C@]1(c2cc(F)cc(S(=O)(=O)c3ccc(/C(C)=N/O)cc3)c2)CCO[C@@H](C)C1	0.1
50	–	–	COC1(c2cc(F)cc(Sc3ccc(/C(C)=N/OC(C)=O)cc3)c2)CCOCC1	–
40	0.6 (≈ 0.234 µg/mL)	–	CO[C@]1(c2cc(F)cc(Sc3ccc(/C(C)=N/O)cc3)c2)CCO[C@@H](C)C1	0.05
40	–	–	COC1(c2cc(F)cc(Sc3ccc(/C(C)=N/OC(=O)C(C)(C)C)cc3)c2)CCOCC1	–
110	–	–	CO/N=C(\C)c1ccc(Sc2cc(F)cc(C3(OC)CCOCC3)c2)cc1	–
850	–	8.4	COC1(c2cc(F)cc(Sc3ccc(/C(=N/O)C(C)=O)cc3)c2)CCOCC1	–
130	–	–	COC1(c2csc(Sc3ccc4c(c3)CC/C4=N\O)c2)CCOCC1	–
30	–	–	COC1(c2cc(F)cc(Sc3ccc4c(c3)CC/C4=N\OCC#N)c2)CCOCC1	–
150	–	–	CCOC(=O)c1csc(CO/N=C(\C)c2ccc(Sc3cc(F)cc(C4(OC)CCOCC4)c3)cc2)n1	–
40	–	–	COC1(c2csc(Sc3ccc4c(c3)OCC/C4=N\O)c2)CCOCC1	–
740	–	–	COC1(c2cc(F)cc(Sc3ccc(/C(C)=N/OCC(=O)O)cc3)c2)CCOCC1	–
60	–	–	CO[C@]1(c2cc(F)cc(S(=O)(=O)c3ccc(/C(C)=N/OCC#N)cc3)c2)CCO[C@@H](C)C1	0.1
25	–	–	COC1(c2cc(F)cc(OCc3ccc4c(ccc(=O)n4C)c3)c2)CCOCC1 [ZD-2138]	–

Compound	IC50 [1] [nM]	solubility [3] [µM]	pKa [4]	ED50 [2] [mg/kg]
C/C(=N\OC(=O)N(C)C)c1ccc(Sc2cc(F)cc(C3CCOCC3)c2)cc1	2610	–	–	–
